Our source for the EC50 and IC50 values is the Kinase Knowledgebase extract (Sharma et al. 2016).

Experiment [1] has as its target PIK3CA (human) (UniProt P42336). The experiment is described as follows: Inhibition of A2780 Cell Proliferation.
For experiment [2] the target is unchanged. Nature of the experiment: Inhibition of PIK3CA Kinase Activity.

Sequence of PIK3CA (human) (P42336 whole entry, looked up): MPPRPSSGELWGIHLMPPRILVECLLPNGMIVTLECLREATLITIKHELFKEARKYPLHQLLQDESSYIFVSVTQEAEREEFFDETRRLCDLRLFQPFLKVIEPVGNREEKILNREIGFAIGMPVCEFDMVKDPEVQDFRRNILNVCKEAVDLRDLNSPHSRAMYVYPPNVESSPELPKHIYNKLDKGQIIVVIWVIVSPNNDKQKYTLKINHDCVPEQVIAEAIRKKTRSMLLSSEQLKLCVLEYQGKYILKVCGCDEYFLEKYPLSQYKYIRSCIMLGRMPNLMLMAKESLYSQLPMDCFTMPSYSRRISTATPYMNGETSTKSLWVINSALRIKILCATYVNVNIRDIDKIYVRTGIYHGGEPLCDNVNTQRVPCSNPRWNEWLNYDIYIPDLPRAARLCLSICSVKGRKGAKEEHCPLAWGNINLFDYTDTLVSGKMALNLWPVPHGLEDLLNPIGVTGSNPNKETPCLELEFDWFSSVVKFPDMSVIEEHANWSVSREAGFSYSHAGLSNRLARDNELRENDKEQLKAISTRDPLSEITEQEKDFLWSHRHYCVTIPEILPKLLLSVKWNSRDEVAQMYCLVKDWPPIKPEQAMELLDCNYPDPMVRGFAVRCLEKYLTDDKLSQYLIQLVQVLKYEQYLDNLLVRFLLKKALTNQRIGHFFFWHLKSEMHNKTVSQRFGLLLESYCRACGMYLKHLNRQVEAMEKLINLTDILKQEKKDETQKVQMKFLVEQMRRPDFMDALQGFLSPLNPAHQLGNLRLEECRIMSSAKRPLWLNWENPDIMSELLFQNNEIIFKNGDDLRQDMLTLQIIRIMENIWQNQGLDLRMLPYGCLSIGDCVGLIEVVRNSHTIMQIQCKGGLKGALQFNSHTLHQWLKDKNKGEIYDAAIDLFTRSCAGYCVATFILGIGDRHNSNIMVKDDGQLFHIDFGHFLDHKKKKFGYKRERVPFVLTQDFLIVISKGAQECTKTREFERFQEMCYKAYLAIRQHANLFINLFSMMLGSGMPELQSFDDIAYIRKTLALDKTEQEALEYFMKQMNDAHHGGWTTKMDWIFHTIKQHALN

`C[C@@H](N)C(=O)Nc1cn2nc(-c3cnc(N)c(C(F)(F)F)c3)ccc2n1` registered an EC50 in experiment [1] of less than 10 µM. This compound displayed an IC50 in experiment [2] of less than 1000 nM.

With `CC(=O)Nc1cn2cc(-c3cnc(N)c(C(=O)NCCNS(C)(=O)=O)n3)ccc2n1`, the EC50 in experiment [1] is less than 25 µM. In experiment [2], this compound returned an IC50 of less than 1000 nM.

In experiment [1], `CC(=O)Nc1nc2ccc(-c3cnc(N)c(C(F)(F)F)c3)cn2c1C#Cc1ccccn1` gave an EC50 of less than 10 µM. In experiment [2], the half-maximal inhibitory concentration (IC50) is less than 1000 nM.

Compound `CC(C)(C)OC(=O)N1CCC(OCC(=O)Nc2cn3cc(-c4cnc(N)c(C(F)(F)F)c4)ccc3n2)CC1` gave an EC50 in experiment [1] of less than 10 µM. Further, the IC50 in experiment [2] was less than 1000 nM.

In turn, `CC(C)(C)OC(=O)NCC(=O)Nc1cn2cc(-c3cnc(N)c(C(F)(F)F)c3)ccc2n1` displayed an EC50 in experiment [1] of less than 10 µM. Further, in experiment [2], the IC50 is less than 1000 nM.

In experiment [1], `CC(=O)Nc1cn2cc(-c3cnc(N)c(-c4ccccc4)n3)ccc2n1` yielded an EC50 of less than 10 µM. The IC50 in experiment [2] was less than 1000 nM.

For `CC(=O)Nc1cn2cc(-c3cnc(N)c(-c4ccccc4N4CCOCC4)c3)ccc2n1`, in experiment [1], the EC50 was less than 1 µM. For the same compound, the IC50 in experiment [2] is less than 1000 nM.

The compound `CNCC(=O)Nc1cn2cc(-c3cnc(N)c(C(F)(F)F)c3)ccc2n1` came in with an EC50 in experiment [1] of less than 1 µM. For the same compound, in experiment [2], the half-maximal inhibitory concentration (IC50) was less than 1000 nM.

In experiment [1], `CCN1CCCCC1CCC(=O)Nc1cn2nc(-c3cnc(N)c(C(F)(F)F)c3)ccc2n1` (stereo unspecified) came in with an EC50 of less than 1 µM. Also, the IC50 in experiment [2] is less than 1000 nM.

Compound `Nc1ncc(-c2ccc3nc(NC(=O)C(F)(F)F)cn3c2O)cc1C(F)(F)F` showed an EC50 in experiment [1] of less than 25 µM. Also, in experiment [2], the IC50 was less than 10000 nM.

`CC(=O)Nc1cn2cc(-c3cnc(N)c(OC4CCC4)n3)ccc2n1` gave an EC50 in experiment [1] of less than 1 µM. Moreover, the IC50 in experiment [2] is less than 1000 nM.

Turning to `CC(=O)Nc1cn2cc(-c3cnc(N)c(C(=O)NCCN4CCCC4)n3)ccc2n1`, the EC50 in experiment [1] was less than 1 µM. Moreover, the IC50 in experiment [2] is less than 1000 nM.

In experiment [1], `Nc1ncc(-c2ccc3nc(NC(=O)CN4CCCCC4)cn3c2)cc1C(F)(F)F` had an EC50 of less than 10 µM. Moreover, the IC50 in experiment [2] was less than 1000 nM.

For `Nc1ncc(-c2ccc3nc(NC(=O)COCc4ccccc4)cn3n2)cc1C(F)(F)F`, in experiment [1], the EC50 is less than 10 µM. The compound also registered an IC50 in experiment [2] of less than 1000 nM.

As to `CNCC(=O)Nc1cn2cc(-c3cnc(N)c(OCCOC)n3)ccc2n1`, the EC50 in experiment [1] was less than 10 µM. This compound also showed an IC50 in experiment [2] of less than 1000 nM.

In experiment [1], `CC(=O)Nc1nc2ccc(-c3cnc(N)c(C(F)(F)F)c3)cn2c1C#N` yielded an EC50 of less than 1 µM. In experiment [2], this compound displayed an IC50 of less than 1000 nM.

On to `COCCCOc1nc(-c2ccc3nc(NC(C)=O)cn3c2)cnc1N`, for which the EC50 in experiment [1] is less than 1 µM. Moreover, the IC50 in experiment [2] was less than 1000 nM.

Turning to `Nc1ncc(-c2ccc3nc(NC(=O)c4ccccn4)cn3c2)cc1C(F)(F)F`, the EC50 in experiment [1] was less than 25 µM. The same compound had an IC50 in experiment [2] of less than 1000 nM.

Consider `Nc1ncc(-c2ccc3nc(NC(=O)C(F)(F)F)cn3c2)cn1`, for which the half-maximal effective concentration (EC50) in experiment [1] is less than 25 µM. This compound showed an IC50 in experiment [2] of less than 1000 nM.

For `CC(=O)Nc1nc2ccc(-c3cnc(N)c(Br)c3)cn2c1Br`, the EC50 in experiment [1] is less than 10 µM. The compound further came in with an IC50 in experiment [2] of less than 1000 nM.

For `CC(=O)NC1CCN(C(=O)Nc2cn3cc(-c4cnc(N)c(C(F)(F)F)c4)ccc3n2)C1` (stereo unspecified), the EC50 in experiment [1] was less than 25 µM. For the same compound, the IC50 in experiment [2] was less than 1000 nM.

Consider `COc1cccc(-c2cc(-c3ccc4nc(NC(C)=O)cn4n3)cnc2N)n1`, for which, in experiment [1], the EC50 was less than 10 µM. The same compound returned an IC50 in experiment [2] of less than 1000 nM.

In experiment [1], `CC(=O)Nc1cn2cc(-c3cnc(N)c(-c4ccc(N5CCOCC5)cc4)c3)ccc2n1` had an EC50 of less than 10 µM. Further, the IC50 in experiment [2] was less than 10000 nM.

As for `Nc1ncc(-c2ccc3nc(NC(=O)c4ccncc4)cn3c2)cc1C(F)(F)F`, the EC50 in experiment [1] is less than 25 µM. Further, the IC50 in experiment [2] is less than 1000 nM.

As to `Nc1ncc(-c2ccc3nc(NC(=O)N4CCC(C(=O)O)C4)cn3c2)cc1C(F)(F)F` (stereo unspecified), the EC50 in experiment [1] was less than 25 µM. In addition, the IC50 in experiment [2] is less than 1000 nM.

Regarding `CNCC(=O)Nc1cn2nc(-c3cnc(N)c(C(F)(F)F)c3)ccc2n1`, the EC50 in experiment [1] was less than 1 µM. Moreover, the IC50 in experiment [2] is less than 1000 nM.

For the compound `CC(=O)Nc1cn2cc(-c3cnc(N)c(-c4ccccc4F)c3)ccc2n1`, the EC50 in experiment [1] was less than 10 µM. Besides, the IC50 in experiment [2] was less than 1000 nM.

With `CC(=O)Nc1nc2cc(C)c(-c3cnc(N)c(C(F)(F)F)c3)cc2s1`, the EC50 in experiment [1] is less than 25 µM. Also, in experiment [2], the IC50 is less than 1000 nM.

`CC(=O)Nc1cn2nc(-c3cnc(N)c(-c4ccccc4F)c3)ccc2n1`: the EC50 in experiment [1] is less than 1 µM. The IC50 in experiment [2] is less than 1000 nM.

The compound `Nc1ncc(-c2ccc3nc(NC(=O)c4cccc(Cl)c4)cn3c2)cc1C(F)(F)F` showed an EC50 in experiment [1] of less than 10 µM. Further, in experiment [2], the IC50 was less than 1000 nM.

In the case of `CCC(=O)Nc1cn2cc(-c3cnc(N)c(OC)n3)ccc2n1`, the EC50 in experiment [1] is less than 10 µM. In experiment [2], this compound gave an IC50 of less than 1000 nM.

Compound `Nc1ncc(-c2ccc3nc(NC(=O)CCO)cn3c2)cc1C(F)(F)F` had an EC50 in experiment [1] of less than 10 µM. In addition, the IC50 in experiment [2] is less than 1000 nM.

Regarding `CC(=O)Nc1cn2nc(-c3cnc(N)c(Cl)c3)ccc2n1`, the EC50 in experiment [1] is less than 1 µM. Moreover, in experiment [2], the IC50 was less than 1000 nM.
